Experimental data published in patent US12441763B2, “Hangtaimycin derivatives and their preparation methods and application” (WUHAN UNIVERSITY, priority 2022, dated 2025).
Numbered stars: 1 amine (or outer) side, 2 acyl side, 3 side chain; on linkers, the order of the positions; unused ones are H or OH. Square brackets hold non-standard residues; d marks the D form. Peptide text beside a SMILES is read from it. * marks the point of attachment. X3 = O=C1C=C(CCC/C=C/C=C/C(=O)[*:2])CC(C(O)N[*:1])O1; X4 = O=C1C=C(CCC/C=C/C=C/C(=O)[*:2])CC(CN[*:1])O1; NMeW = CN[CH](Cc1c[nH]c2ccccc12)C(=O)O; X2 = C/C(=C\C(C)N[*:1])C(=O)[*:2]; Dhb = C/C=C(\N)C(=O)O; X1 = C/C=C/C=C\C(=O)*; Dha = C=C(N)C(=O)O

Experiments:
[1] = test system: cocaine reward memory reconsolidation; test: Drug reward memory reconsolidation, cocaine; type: in vivo, SD rats; settings: 3 mg/kg i.p. after exposure to drug-paired box; group IV vs group III; 7th day after reward memory activation; P<0.05
Method: (§1) Drug reward memory reconsolidation: Morphine, an opioid representative, and cocaine, a euphoric representative, were used to establish model addiction. On the first day, baseline was assessed by placing the rats in the center compartment of the CPP apparatus and allowing ad libitum access to all compartments for 15 minutes. And then, male SD rats were divided into the saline+morphine group, the HTMB (3 mg/kg)+morphine group, the saline+cocaine group, and the HTMB (3 mg/kg, i.p.)+cocaine group. The rats were exposed to CPP training from day 2 to 9. On the 10th day, the channel between the three boxes was opened, and the rats were allowed to move freely in the three boxes for 15 minutes for the CPP test. On the 11th day, the CPP expressing rats screened for CPP formation were divided into four groups: the group I (morphine+saline), the group II (morphine+3 mg/kg HTMB), the group III (cocaine+saline), and the group IV (cocaine+3 mg/kg HTMB). After exposure to drug-paired box for 10 minutes, groups I and III were injected with saline (1 ml/kg, i.p.), and the groups II and IV were injected with HTMB (3 mg/kg, i.p.). 24 hours after injection, we defined this as 1 day of activation of the reward memory. The CPP scores were measured on the 7th day after reward memory activation.

[2] = Antioxidant activity, DPPH free radical scavenging; type: biochemical; settings: 1~50 μg/mL, 0.1 mM DPPH, absorbance at 517 nm
Method: In this experiment, a 0.1 mM DPPH solution was prepared with ethanol, and each sample solution/dispersion was separately mixed with the DPPH solution in order to dilute it into a reaction product with a concentration gradient of 1˜50 μg/mL to evaluate the concentration-dependent antioxidant potential. The reaction product was measured for its absorbance (AS) at 517 nm using an ultraviolet-visible spectrophotometer, and its antioxidant activity was measured using DPPH removal as an indicator. The percentage of DPPH free radical scavenging is calculated by the following formula: […]
AS is the absorbance of the sample and A0 is the absorbance of the control (only DPPH solution).

bladder cancer = test: Antitumor activity, MTT cell viability, bladder cancer; type: cell-based; settings: 50 μg/mL, 24 hours, P<0.01
Method: (§2) In a 96-well microplate, 100 μL of culture medium was put in each well and inoculate four cell strains with a fusion degree of 80% at a density of 8×10^3 cells. Cells were grown at 37° C., CO2 (5%) and air (95%). Each 96-well plate was placed with a concentration gradient of 0˜100 μg/mL of test compounds HTM, HTMA, HTMB, and HTMP. After 24 hours of incubation, the medium was removed, and 0.5 mg/mL MTT solution was added to each medium with cells and continue to incubate the cells for 4 hours at 37° C. Then 100 μL of DMSO was added to dissolve formazan crystals. Finally, absorbance was measured at 570 nm using a microplate reader (Bioteck EON, USA). The viability of the cells was calculated as the percentage of cell viability compared to vehicle control-treated cells, which were arbitrarily assigned as 100% viability. Each independent experiment was repeated five times. (*P<0.05, **P<0.01, ***P<0.001)

[3] = test system: morphine reward memory reconsolidation; test: Drug reward memory reconsolidation, morphine; type: in vivo, SD rats; settings: 3 mg/kg i.p. after exposure to drug-paired box; group II vs group I; 7th day after reward memory activation; P<0.05
Method: as §1

breast cancer = test: Antitumor activity, MTT cell viability, breast cancer; type: cell-based; settings: 50 μg/mL, 24 hours
Method: as §2

renal cancer = test: Antitumor activity, MTT cell viability, renal cancer; type: cell-based; settings: […], 24 hours, P<0.01
Method: as §2

[4] = test system: alpha-naphthyl isothiocyanate-induced liver injury; test: Animal assay for hepatoprotective activity, alpha-naphthyl isothiocyanate-induced liver injury; type: in vivo, Wistar rats
Method: Male Wistar rats weighing around 220 g were randomly divided into 7 groups with 12 rats in each group. After grouping, they were fed a standard diet under standard conditions and were orally gavaged continuously. The dosages of the positive control groups obeticholic acid and silymarin were 10 mg/kg and 5 mg/kg respectively. The HTMA group was divided into low, medium, and high-dose groups with doses of 2.5, 5, and 10 mg/kg. The control and model groups were orally gavaged with 0.5% sodium carboxymethyl cellulose (solvent) daily. After 7 days of gavage, the rats fasted for 12 hours. On the 8th day, their weight was measured, and all rats except for the control group were intraperitoneally injected with alpha-naphthyl isothiocyanate (50 mg/kg, dissolved in olive oil) to induce liver injury. The rats in the control group were intraperitoneally injected with the same amount of olive oil. After two more days of gavage and 12 hours of fasting, blood samples were taken to detect biochemical indicators reflecting the degree of liver cell damage (FIGS. 27A˜27C) and bile stasis (FIGS. 28A˜28E), and liver immunohistochemical detection was performed (FIGS. 29A, 29B and 30A˜30F).

HepG2 cells [5] = test: Cellular assay for hepatoprotective activity, CCl4-induced liver injury cell model; type: cell-based; settings: compared with the CCl4 group; HepG2 cell homogenates
Method: HepG2 cells were seeded into 24-well plates and kept at 37° C. in 5% CO2 in order to achieve 80% fusion. To evaluate the effects of HTMA, HTMB, and HTMP on aspartate aminotransferase (AST) and alanine aminotransferase (ALT) activity, and compare the results with those of Silymarin (positive control) (FIG. 26), a cellular assay for hepatoprotective activity was carried out using a CCl4-induced liver injury cell model. The cells were treated with the compounds followed by ultrasound disruption and cell homogenization to prepare the cell homogenates for analysis.

[6] = test system: carrageenan-induced paw inflammation; test: Anti-inflammatory effect in inflammatory model induced by carrageenan (paw); type: in vivo, Kunming mice; settings: 10 mg/mL; for right hind foot thickness: 10 μL subcutaneous into right hind paw, 4 hours after carrageenan injection, vs carrageenan+solvent group
Method: Male Kunming mice weighing 18˜22 g were adaptively reared for 1 day, and then randomly divided into […] (5˜6 mice per group): the saline+solvent group, the saline+HTM group, the saline+HTMP group, the saline+HTMA group, the saline+HTMB group, the saline+rapamycin (250 nM) group, the carrageenan+solvent group, the carrageenan+HTM group, the carrageenan+HTMP group, the carrageenan+HTMA group, the carrageenan+HTMB group, and the carrageenan+rapamycin (250 nM) group. Where doses used for HTM, HTMP, HTMA, and HTMB were set at 1, 3, and 10 mg/mL, and their solutions all contained 5% DMSO. Experiments were designed based on previous studies (Zhang et al., 2018). Carrageenan was used to induce paw inflammation, and the experimental procedure was as follows:
(1) The thickness of the right hind foot of mice was measured with a vernier caliper before the experiment, and the measurement site was marked.
(2) The experimental group was then subcutaneously injected into the right hind paw with 10 μL of different concentrations of compound solutions. The control group was injected with 10 μL saline into the right hind paw.
(3) After administration, the carrageenan group was injected subcutaneously with 30 μL of 1% carrageenan solution into the right hind paw, and the other groups were injected with an equal volume of saline. The thickness of the right hind foot of each mouse was measured at the same site every 1 hour for the following 4 hours to observe the effect of the compounds on the change in foot thickness.

HepG2 cells [7] = test: Protection of the cell membrane of HepG2 after CCl4 injury (DiO/DAPI confocal imaging); type: cell-based; settings: HTMA pre-treatment 12 hours, then 70% CCl4 injury fluid 1 hour; vs model group
Method: Well-growing HepG2 cells were plated into confocal dishes with 1 mL of cell suspension containing 5×10^5 cells per dish. After 24 hours of incubation, pre-treat the cells with HTMA for 12 hours. The culture medium was removed from the confocal dish, then phenol red-free DMEM medium was added to the control group, 70% CCl4 injury fluid was added to the model and treatment groups. The dishes were placed in a 37° C. incubator for 1 hour to induce liver injury. After modeling, the culture medium was removed, the cells were rinsed with PBS, and fixed with 4% paraformaldehyde at room temperature for 10 minutes. Then the cells were rinsed with PBS three times, each time for 5 minutes. 10 μM DiO was added to the dish and stained the cells at room temperature for 30 minutes. Then the cells were rinsed with PBS three times, each time for 5 minutes. DAPI was dropped to counterstain the cell nucleus, incubating it in the dark for 30 minutes, and then the cells were rinsed with PBS three times. The images of the cells were captured using a laser scanning confocal microscope (Leica TCS SP8). The experimental design includes two positive controls: silymarin(S) and obeticholic acid (OBC).

morphine-induced CPP = test: Conditioned place preference (CPP) experiments; type: in vivo, SD rats; settings: HTMB 3 mg/kg + morphine vs saline + morphine; test on the 10th day; P<0.05
Method: Conditioned place preference (CPP) experiments: Morphine, an opioid representative, and cocaine, a euphoric representative, were used to establish a model of addiction. On the first day, the baseline was assessed by placing the rats in the center compartment of the CPP apparatus and allowing ad libitum access to all compartments for 15 minutes. And then, male SD rats were divided into the saline+morphine group, the HTMB (3 mg/kg)+morphine group, the saline+cocaine group, and the HTMB (3 mg/kg, i.p.)+cocaine group. The rats were exposed to CPP training from day 2 to 9. On the 10th day, the channel between the three boxes was opened, and the rats were allowed to move freely in the three boxes for 15 minutes for the CPP test.

[8] = test system: acute inflammatory visceral pain caused by acetic acid; test: Writhing test (acetic acid); type: in vivo, Balb/c mice; settings: 30 minutes before 0.6% acetic acid i.p., counted within 20 minutes, vs solvent group, P<0.05
Method: The writhing test: Male Balb/c mice weighting 18˜22 g were randomly divided into four groups (9˜10 per group): the vehicle group (DMSO:saline=1:4, 1 ml/kg), the HTMB (1 mg/kg) group, the HTMB (3 mg/kg) group, and the HTMB (10 mg/kg) group. After tail vein administration for 30 minutes, mice were injected intraperitoneally with 10 mL/kg of freshly prepared 0.6% acetic acid (Rediet Tesfaye, et al. 2020), and the number of body twists of mice was observed and recorded within 20 minutes.

[9] = high-dose HTMA (HH) 10 mg/kg, oral gavage, vs liver injury model group, blood

With `C=C(NC(=O)/C=C\C=C\CCCC1=CC(=O)OC(C(O)NC(=O)C(C)=CC(C)NC(=O)/C=C\C=C\C)C1)C(=O)NC(C(=O)N1C(=O)[C@@H](Cc2c[nH]c3ccccc23)N(C)C(=O)/C1=C/C)C(C)OC` (stereo partly shown) [HTM, Hangtaimycin] the “CPP scores, cocaine reward memory reconsolidation” value [1] was “inhibit”, the “antioxidant capacity (DPPH free radical scavenging)” value [2] was “have antioxidant capacity” and the “survival rate of bladder cancer” value (bladder cancer) was “significantly inhibited”. The “CPP scores, morphine reward memory reconsolidation” value [3] was “inhibit”, the “survival rate of breast cancer” value (breast cancer; P<0.05) was “significantly inhibited” and the “survival rate of renal cancer” value (renal cancer) was “significantly inhibited”.
For `C=C(NC(=O)/C=C/C=C/CCCC1=CC(=O)OC(C(O)NC(=O)/C(C)=C/C(C)NC(=O)/C=C\C=C\C)C1)C(=O)NC(C(=O)N/C(=C\C)C(=O)N(C)C(Cc1c[nH]c2ccccc12)C(=O)OC)C(C)OC` (stereo not shown) [HTMA, Hangtaimycin A] (X1-[X2][X3][Dha]T(Me)[Dhb][NMeW]-OMe; configuration not given here), the “antioxidant capacity (DPPH free radical scavenging)” value [2] was “does not”, the “effects on other biochemical indicators relative to high-dose HTMA” value ([4]; 2.5 mg/kg oral gavage (HTMA low dose LH)) was “weaker” and the LDH levels ([4]; 2.5 mg/kg oral gavage (HTMA low dose LH), vs liver injury model group) was “significantly reduced”. The “effects on other biochemical indicators relative to high-dose HTMA” value ([4]; 5 mg/kg oral gavage (HTMA medium dose MH; silymarin)) was “weaker”, the LDH levels ([4]; 5 mg/kg oral gavage (HTMA medium dose MH; silymarin), vs liver injury model group) was “significantly reduced” and the “levels of LDH” value ([4]; 10 mg/kg oral gavage (HTMA high dose HH; obeticholic acid), vs liver injury model group) was “significantly reduce”. The “pathological conditions of liver tissue damage (liver tissue staining)” value ([4]; all doses of HTMA (2.5, 5, 10 mg/kg oral gavage), vs liver injury model group) was “therapeutic effect”, the “levels of ALP” value [4, 9] was “significantly reduce” and the “levels of ALT” value [4, 9] was “significantly reduce”. The “levels of AST” value [4, 9] was “significantly reduce”, the “levels of GGT” value [4, 9] was “significantly reduce” and the “levels of TBA” value [4, 9] was “significantly reduce”. The “levels of TBIL” value [4, 9] was “significantly reduce”, the ALT levels (HepG2 cells [5]) was “significantly reduced” and the AST levels (HepG2 cells [5]) was “significantly reduced”. The “right hind foot thickness” value ([6]; P<0.05) was “reduced”, the “survival rate of bladder cancer” value (bladder cancer) was “significantly inhibited” and the “survival rate of breast cancer” value (breast cancer; P<0.01) was “significantly inhibited”. The “cell membrane morphology (DiO fluorescence)” value (HepG2 cells [7]) was “protective effect on the cell membrane”.
In the case of `C=C(NC(=O)/C=C/C=C/CCCC1=CC(=O)OC(CNC(=O)/C(C)=C/C(C)NC(=O)/C=C\C=C\C)C1)C(=O)NC(C(=O)N/C(=C\C)C(=O)N(C)C(Cc1c[nH]c2ccccc12)C(=O)OC)C(C)OC` (stereo not shown) [HTMB, Hangtaimycin B] (X1-[X2][X4][Dha]T(Me)[Dhb][NMeW]-OMe; configuration not given here), the “antioxidant capacity (DPPH free radical scavenging)” value [2] is reported as “have antioxidant capacity”, the “CPP scores, morphine-induced CPP” value (morphine-induced CPP) is reported as “inhibit” and the “number of body twists” value ([8]; 3 mg/kg tail vein) is reported as “significantly lower”. The “number of body twists” value ([8]; 10 mg/kg tail vein) was “significantly lower”, the ALT levels (HepG2 cells [5]) was “significantly reduced” and the AST levels (HepG2 cells [5]) was “significantly reduced”. The “improvement of the inflammation caused by carrageenan, comparison among HTMP, HTMA and HTMB” value [6] was “best results”, the “right hind foot thickness” value ([6]; P<0.05) was “reduced” and the “number of leukocytes per unit area (HE staining)” value ([6]; carrageenan+HTMB group vs carrageenan+solvent group, P<0.05) was “statistical difference”. For the same compound, the “survival rate of bladder cancer” value (bladder cancer) was “significantly inhibited”, the “survival rate of breast cancer” value (breast cancer; P<0.05) was “significantly inhibited” and the “survival rate of renal cancer” value (renal cancer) was “significantly inhibited”.
